We go through one molecule from paper PMC9144145, “Preclinical Safety and Pharmacokinetics of Heat Stable Oxytocin in Sublingual Fast-Dissolving Tablet Formulation” (Pharmaceutics, 2022).

This series can be described thus: GLP toxicokinetic study in anesthetized rabbits, plasma oxytocin by LC-MS/MS. Type of series: in vivo. The conditions noted are these: rabbit, IM, 10 IU. The method, then:
The toxicokinetic study in rabbits (Table 2) was conducted at a contract animal facility (Noble Life Sciences, Sykesville, MD, USA) under approval from Noble Life Sciences IACUC (approval code: NLS-589, date: 13 May 2020) and in compliance with the U.S. Food and Drug Administration Good Laboratory Practice Regulations for Nonclinical Laboratory Studies (21 CFR Part 58).
For SL placement of fast dissolving tablets, the rabbit was anesthetized and positioned on a flat table, with the lower jaw strongly supported in a horizontal level on the table. Using rounded tip stainless tweezers, the rabbit’s tongue was carefully raised, and the sublingual tablet was placed beneath the tongue (see Figure 1). Anesthesia was maintained for 3 h after drug administration to keep the tablet in sublingual position and prevent entering the gastrointestinal tract.
Animals were not fasted prior to blood collection. Blood was collected at the time points of 0 min (pre-dose) and 5, 10, 15, 20, 30, 60, 120, and 180 min post-dose and at euthanasia only the first four animals for SL group. All animals were anesthetized pre-dose, prior to dosing. All animals were anesthetized with ketamine (35–50 mg/kg) and xylazine (3–5 mg/kg) via a subcutaneous or intramuscular (IM) route followed by maintenance anesthesia with additional half doses if needed or via inhaled isoflurane. At the selected time points, whole blood was collected aseptically from the auricular artery and dispensed into the appropriate collection tubes in any order: (1) K3 EDTA for hematology determinations; (2) 0.129 M, 3.8% sodium citrate for coagulation analyses (plasma); (3) serum separator tube for serum chemistry and C-reactive protein; and (4) aprotinin-spiked (K2EDTA) tubes for plasma oxytocin determinations. Tubes containing hematology specimens were placed at room temperature on a rocker for at least 30 min prior to shipment. Tubes containing whole blood for serum isolation were maintained for at least 30 min and no more than 4 h at room temperature before being processed to serum. Tubes containing aprotinin-spiked (K2EDTA) specimens for oxytocin determinations were maintained on wet ice or cold packs before use and after collection. They were also maintained on a rocker for at least 30 min prior to processing.
Blood samples for oxytocin determination were collected into the Aprotinin spiked (K2EDTA) vacutainer tubes and processed for collection of plasma. The samples were processed by centrifuging for approximately 15 min at approximately 3000 rpm and approximately 4 °C; they were aliquoted into cryovials without anticoagulant and were immediately placed on dry ice. At termination, blood was collected from the SL group for serum chemistry, C-reactive protein, hematology, and coagulation. Blood collected for coagulation analyses was collected into tubes containing 3.8% sodium citrate and was processed for plasma per the Noble protocol. All serum and plasma samples were processed aseptically.
Each plasma sample was aliquoted into two vials of an approximately equal volume. All the collected plasma was analyzed for oxytocin levels by the LC-MS/MS method.
The bioanalytical method for quantification of oxytocin in rabbit plasma (K2EDTA) was validated following the FDA guidelines for a bioanalytical method validation at NorthEast BioAnalytical Laboratory, LLC (NEBA) (Hamden, CT, USA), via reverse phase liquid chromatography separation (Column: Zorbax SB C18 (Agilent, Santa Clara, CA, USA) 3.5 μm 150 × 4.6 mm, Security/Guard Cartridge Gemini C18 4 × 2.0 mm) and detection by tandem mass spectrometry (LC/MS/MS) using Sciex API-5000 Mass Spectrometer. Analysis of Oxytocin was performed using stable label internal standard, Oxytocin-d5. Oxytocin was received as an acetate salt and Oxytocin-d5 was received as Trifluoroacetate salt.
For quantitation, the LC/MS/MS data were acquired using Analyst® v1.6 software (Sciex, Framingham, MA, USA). […]

In general, AUC(0-t) refers to exposure summed from dosing to a finite time, without extrapolation to infinity. As a reminder, the half-life is the time in which the quantity being followed falls by half. What is called Tmax is the time at which the peak concentration occurs. The Cmax is the peak of the concentration-time curve. For `CC[C@H](C)[C@@H]1NC(=O)[C@H](Cc2ccc(O)cc2)NC(=O)[C@@H](N)CSSC[C@@H](C(=O)N2CCC[C@H]2C(=O)N[C@@H](CC(C)C)C(=O)NCC(N)=O)NC(=O)[C@H](CC(N)=O)NC(=O)[C@H](CCC(N)=O)NC1=O` [Intramuscular (Control), Oxytocin], the “time to rapid increase in plasma oxytocin concentration” value was at most 5 min. Besides, where the note is “plasma, linear trapezoidal, mean, n = 8”, the AUC(0-t) came out at 4.82 ± 0.728 ng·h/mL. Besides, under “plasma, mean, n = 8”, the half-life is 61.2 ± 20.2 min. This molecule came in with a Tlast (mean, n = 8) of 2.88 ± 0.354 h. In addition, the Tmax (plasma, LC-MS/MS, mean ± SD, n = 8, SD) worked out at 1.13 ± 0.916 h. The molecule also came in with a Cmax (plasma, LC-MS/MS, mean, n = 8) of 2.66 ± 0.567 ng/mL.
